# Test results taken from ChEMBL document CHEMBL1201862, “PubChem BioAssay data set” (2004).
#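 Exposure lasted 48 hours, with cells grown in 96-well plates and compounds tested at five concentrations. Here, GI50 denotes the concentration required for 50% inhibition of growth.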 Active and inactive are the calls of the source. Rule as the data show it: active = GI50 up to about 1.1 µM and inactive = higher.
# Columns and labels:
# Experiment in all cases: NCI-60 cell line screen, 48 h
# [1] = test system: LXFL 529
# [2] = test system: HCT-15
# [3] = test system: SNB-78
# [4] = test system: KM12
# [5] = test system: SK-MEL-28
# [6] = test system: U-251
# [7] = test system: 786-0
# [8] = test system: HOP-92
# [9] = test system: DMS-114
# [10] = test system: HT-29
# [11] = test system: OVCAR-5
# [12] = test system: M19-MEL
# [13] = test system: UACC-257
# [14] = test system: M14
# [15] = test system: HOP-62
# [16] = test system: SW-620
# [17] = test system: TK-10
# [18] = test system: UACC-62
# [19] = test system: SNB-19
# [20] = test system: SN12C
# [21] = test system: IGROV-1
# [22] = test system: OVCAR-3
# [23] = test system: LOX IMVI
# [24] = test system: K562
# [25] = test system: SK-MEL-5
# [26] = test system: DMS-273
# [27] = test system: NCI-H226
# [28] = test system: OVCAR-8
# [29] = test system: HL-60
# [30] = test system: ACHN
# [31] = test system: OVCAR-4
# [32] = test system: UO-31
# [33] = test system: CCRF-CEM
# [34] = test system: SK-MEL-2
# [35] = test system: NCI-H23
# [36] = test system: SF-268
# [37] = test system: NCI-H460
# [38] = test system: SR
# [39] = test system: EKVX
# [40] = test system: SK-OV-3
# [41] = test system: HCT-116
# [42] = test system: XF498
# [43] = test system: DLD-1
# [44] = test system: HCC 2998
# [45] = test system: NCI-H522
# [46] = test system: SF-295
# [47] = test system: RXF 393
# [48] = test system: COLO 205
# [49] = test system: RPMI-8226
# [50] = test system: Malme-3M
# [51] = test system: SF-539
# [52] = test system: MOLT-4
# [53] = test system: SNB-75
# [54] = test system: A549
smiles,measurement,setting,value
COc1ccc2c3c(c(C(=O)O)oc13)CCC2,GI50,[1],> 100 µM (inactive)
same,GI50,[2],> 100 µM
same,GI50,[3],> 100 µM (inactive)
same,GI50,[4],> 100 µM (inactive)
same,GI50,[5],> 100 µM (inactive)
same,GI50,[6],> 100 µM (inactive)
same,GI50,[7],> 100 µM (inactive)
same,GI50,[8],> 100 µM (inactive)
same,GI50,[9],> 100 µM (inactive)
same,GI50,[10],> 100 µM (inactive)
same,GI50,[11],> 100 µM (inactive)
same,GI50,[12],> 100 µM (inactive)
same,GI50,[13],> 100 µM (inactive)
same,GI50,[14],> 100 µM (inactive)
same,GI50,[15],> 100 µM (inactive)
same,GI50,[16],> 100 µM (inactive)
same,GI50,[17],> 100 µM (inactive)
same,GI50,[18],> 100 µM (inactive)
same,GI50,[19],> 100 µM (inactive)
same,GI50,[20],> 100 µM (inactive)
same,GI50,[21],> 100 µM (inactive)
same,GI50,[22],> 100 µM (inactive)
same,GI50,[23],> 100 µM (inactive)
same,GI50,[24],> 100 µM (inactive)
same,GI50,[25],> 100 µM (inactive)
same,GI50,[26],> 100 µM (inactive)
same,GI50,[27],18.2 µM (inactive)
same,GI50,[28],> 100 µM (inactive)
same,GI50,[29],> 100 µM (inactive)
same,GI50,[30],> 100 µM (inactive)
same,GI50,[31],> 100 µM (inactive)
same,GI50,[32],40.7 µM (inactive)
same,GI50,[33],> 100 µM (inactive)
same,GI50,[34],> 100 µM (inactive)
same,GI50,[35],> 100 µM (inactive)
same,GI50,[36],> 100 µM (inactive)
same,GI50,[37],> 100 µM (inactive)
same,GI50,[38],> 100 µM (inactive)
same,GI50,[39],> 100 µM (inactive)
same,GI50,[40],> 100 µM (inactive)
same,GI50,[41],> 100 µM (inactive)
same,GI50,[42],> 100 µM (inactive)
same,GI50,[43],> 100 µM (inactive)
same,GI50,[44],> 100 µM (inactive)
same,GI50,[45],> 100 µM (inactive)
same,GI50,[46],> 100 µM (inactive)
same,GI50,[47],> 100 µM (inactive)
same,GI50,[48],> 100 µM (inactive)
same,GI50,[49],> 100 µM (inactive)
same,GI50,[50],> 100 µM (inactive)
same,GI50,[51],> 100 µM (inactive)
same,GI50,[52],> 100 µM (inactive)
same,GI50,[53],29.1 µM (inactive)
same,GI50,[54],> 100 µM (inactive)
